This is an account of results in patent US12534439B2, “Xanthohumol derivatives and methods for making and using” (Oregon State University, priority 2021, dated 2026).

Structures are written as SMILES.

In series [1] the test system is C2Cl2 cells. The settings on record: cited from earlier work.
For series [2], the system named is HepG2 cells. As to conditions: cited from earlier work.
Series [3] relates to HepG2 cells. Briefly: MTT cell viability assay in HepG2 cells. Format: cell-based, human. The settings on record: 24 hours. On the procedure: (§1) To assess the toxicity of 4-(5-(4-hydroxyphenyl)-1-methyl-1h-pyrazol-3-yl)-5-methoxy-2-(3-methylbut-2-en-1-yl)benzene-1,3-diol (XP), in vitro cell viability assays were performed on several cell lines. HepG2, 3T3L1 and C2Cl2 cells were exposed to XP and cell viability was assessed using an MTT assay. At concentrations lower than 50 μM, XP had no effect on the viability of the human liver cancer cell lines HepG2 and murine myoblast cell lines C2Cl2 with respect to the control treatment (FIGS. 11A-11B). […] This establishes that XP is safe to use in vivo at dosages similar to xanthohumol.
(§2) Cell Viability Assays. Cells were seeded in 96-well plates 24 hours prior to adding the compound. HepG2 cells were seeded at a density of 5×10^4 cells/mL and C2Cl2 at 1×10^4 cells/mL in order to reach 80% confluency at the beginning of the experiment. After 24 hours, the culture medium was replaced with fresh medium containing various concentrations ranging between 0 and 200 μM of XP. The cells were incubated in the presence of the compound for 24 hours, at which time, the MTT viability assay was carried as previously described. MTT was dissolved at 0.5 mg/mL in serum-free Dulbecco's modified Eagle's medium, filter-sterilized and 100 μL was added to the cells. The cells were incubated for 3 hours and then acidified with 100% isopropanol for 15 minutes before absorbance reading at 570 nm on a BioTek Synergy HT plate reader.
For orientation: Tetrazolium assays rely on reduction of a dye to a coloured formazan, in cell work by metabolically active cells.

For a further series, the system named is 3T3L1 cells. Put plainly: MTT cell viability assay in differentiated 3T3L1 adipocytes. Format: cell-based, murine. As to the method: as §1
as §2, with “MTT was dissolved at 0.5 mg/mL in serum-free Dulbecco's modified Eagle's medium, filter-sterilized and 100 μL was added to the cells.” left out

In series [4] the test system is LPS-activated RAW 264.7 cells. Briefly: Nitric oxide (NO) assay, Griess reagent. The settings on record: LPS 1 μg/mL, 24 hours. In kind it is cell-based. As to the method: Nitric Oxide (NO) Assay. NO secreted by LPS-activated RAW 264.7 cells into the culture medium was determined as nitrite by the Griess reagent. RAW 264.7 1 cells obtained from the American Type Culture Collection (Manassas, VA, USA) were cultured in DMEM supplemented with 2 mM glutamine, antibiotics (100 U/mL penicillin and 100 μg/mL streptomycin), and 10% heat-inactivated fetal bovine serum. The cells were initially grown in 75 cm^2 culture flasks at 37° C. in a humidified incubator with 5% CO2. After reaching 80% confluency, the cells were split by seeding them on 96-well plates (0.2 mL/well) at a density of 1.5×10^5 cells/mL. After a 24-hour incubation at 37° C., the cells were treated with LPS (1 μg/mL) with or without test compounds in various concentrations. Vehicle control cells were treated with dimethyl sulfoxide alone at a final concentration of 0.1%. Culture media from control and treated cells were collected after 24 hours of incubation and were frozen at −80° C. before analysis. For the determination of NO (as […]), […], aliquots of the thawed culture media were mixed with an equal volume of Griess reagent on a 96-well plate. […] The samples were incubated for 10 minutes at room temperature and then the absorbance was read at 550 nm using a SpectraMax 190 (Molecular Devices, Sunnyvale, CA) plate reader.

Series [5] relates to C2Cl2 cells. Briefly: MTT cell viability assay in C2Cl2 cells. The settings on record: 24 hours. Format: cell-based, murine. On the procedure:
as §1
as §2, with “MTT was dissolved at 0.5 mg/mL in serum-free Dulbecco's modified Eagle's medium, filter-sterilized and 100 μL was added to the cells.” left out

Another series concerns HFD-fed C57BL/6J mice. Briefly: Follow-up study: XP given after 4 weeks of HFD pre-conditioning (Example 8). In kind it is in vivo. As to conditions: for Decrease in weight gain, average: between weeks 9 and 12, versus HFD without compound. An excerpt:
This example concerns the effects of administering 4-(5-(4-hydroxyphenyl)-1-methyl-1H-pyrazol-3-yl)-5-methoxy-2-(3-methylbut-2-en-1-yl)benzene-1,3-diol to mice after a pre-conditioning phase of 4 weeks during which animals were fed a high-fat diet (HFD) or a low-fat diet (LFD). Forty 9-week old wild-type (WT) male C57BL/6J mice were obtained from Jackson Laboratory (Bar Harbor, ME, USA). The mice were housed in ventilated cages under a 12-12-hr light-dark cycle. Of the 40 mice, 32 were fed a HFD (Dyets Inc., Bethlehem, PA, USA) containing 60%, 20% and 20% total calories from fat, carbohydrate and protein, respectively. The remaining 8 mice were fed a LFD (Dyets Inc., Bethlehem, PA, USA), containing 11%, 70% and 19% total calories from fat, carbohydrate and protein, respectively. XP was first dissolved in a mixture of oleic acid:propylene glycol:Tween 80 (0.9:1:1 by weight) before the solution was mixed into the HFD at a concentration of 0.066% to reach a dose of 60 mg/kg body weight/day. After 4 weeks of HFD feeding, the XP-containing HFD was given to 16 of the 32 HFD-pretreated mice for 8 weeks. Sixteen mice in HFD-pretreatment group received a HFD control diet that contained an identical amount of the mixture of oleic acid:propylene glycol:Tween 80 (0.9:1:1 by weight). The LFD-fed mice were continued on the LFD diet. Food intake and body weights were recorded weekly. The mice were euthanized at week 12.

Where [6] appears, read: listed as 4-(5-(4-hydroxyphenyl)-1-methyl-1H-pyrazol-3-yl)-5-methoxy-2-(3-methylbut-2-en-1).
The mark [7] stands for this setting: listed as 4-(5-(4-hydroxyphenyl)-1-methyl-1h-pyrazol-3-yl)-5-methoxy-2-(3-methylbut-2-en-1).

`COc1cc(O)c(CC=C(C)C)c(O)c1C(=O)/C=C/c1ccc(O)cc1` [XN, xanthohumol]: the Cytotoxic concentration result with C2Cl2 cells [1] and in the series with HepG2 cells [2] was “above 25 μM” each time.
`COc1cc(O)c(CC=C(C)C)c(O)c1-c1cc(-c2ccc(O)cc2)n(C)n1` [XP, 4-(5-(4-hydroxyphenyl)-1-methyl-1H-pyrazol-3-yl)-5-methoxy-2-(3-methylbut-2-en-1-yl)benzene-1,3-diol]: the “Concentration without effect on cell viability” value in the series with HepG2 cells [3] is “lower than 50 μM”; in the series on HepG2 cells [3] (setting [6]), “up to 25 μM”; with HepG2 cells [3] (setting [7]), 1 to 50 µM; in the series with 3T3L1 cells (3T3L1, MTT), “up to 5 μM”; with C2Cl2 cells [5], “lower than 50 μM”; in the series with C2Cl2 cells [5] (setting [6]), “up to 25 μM”. Besides, in the series with 3T3L1 cells (differentiated 3T3L1 adipocytes, MTT), the “Concentration at which dose-dependent reduction in cell viability occurred” value was determined as 10 µM. For the same compound, the “Concentration from which anti-inflammatory activity (decreased NO production) was displayed” value in series [4] is not below 10 µM. Further, in the series with HFD-fed C57BL/6J mice (60 mg/kg body weight/day in HFD for 8 weeks after 4 weeks HFD), the “Weight gain versus control HFD-fed mice” value is “gained significantly less weight”. Also, the results for the “Decrease in weight gain, average” value with HFD-fed C57BL/6J mice and in the series on HFD-fed C57BL/6J mice (setting [7]) were “about 5%” and 5%, respectively. Also, the “Food intake versus control” value with HFD-fed C57BL/6J mice (mouse, in vivo) is on record as “no difference”.
